Results reported in publication PMC10618793, “Investigating cannabinoids as P2X purinoreceptor 4 ligands by using surface plasmon resonance and computational docking” (Heliyon, 2023).
Where “and” joins values, the source holds several entries; their conditions need not be identical. Equal values may be shown once. Entries after “also recorded” stand apart in the source; their conditions may differ. Read-outs that look alike come from different tables or passages of the source.

Tests used:
P2X4 receptor [1] = molecular target: T1, P2X4 receptor (Homo sapiens, UniProt Q99571); test: Surface plasmon resonance competitive binding assay; conditions: for Response Unit (RU): 5-BDBD alone, 1:1 combination, 5 or 1 μM; for experimental binding response unit (RU): validation BX430 vs 5-BDBD, single binders at 1 μM and 1:1 combination, Fig. 4B; for type of binding on P2X4 relative to 5-BDBD: experimental 1:1 combination RU compared with theoretical RU values
T1 construct: His tag (N); purchased MyBioSource, Inc (San Diego, CA, USA)
T1 sequence (Q99571 77-338): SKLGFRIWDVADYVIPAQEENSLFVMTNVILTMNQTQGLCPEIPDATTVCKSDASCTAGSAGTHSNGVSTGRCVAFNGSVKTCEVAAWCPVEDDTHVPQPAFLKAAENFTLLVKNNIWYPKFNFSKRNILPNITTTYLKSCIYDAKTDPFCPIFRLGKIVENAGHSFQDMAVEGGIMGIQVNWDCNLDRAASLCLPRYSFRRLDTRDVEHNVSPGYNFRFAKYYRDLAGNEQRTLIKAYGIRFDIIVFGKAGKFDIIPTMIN
Description: Recombinant human P2X4 (500 μg/mL stock solution in Dnase free water) was diluted to 40 μg/mL in sodium acetate 4.0. The protein was immobilized on a CM5 chip based on an amine coupling method as previously described with minor modification. Briefly, the immobilization method involved five phases. First, a stable baseline was established, and a response was observed. […] Both binding association and dissociation were identified as ethanolamine hydrochloride (1 M; pH 8.5) deactivated unreacted NHS-esters and removed electrostatically bound ligands with a contact time of 420 s and a flow rate of 10 μL/min. Completion of all five phases indicated successful immobilization of the P2X4 protein on the SPR sensor chip.
A competitive SPR binding assay was designed to narrow down the cannabinoids’ binding site on P2X4. […] Both compounds were dissolved in DMSO at 10 mM and diluted to 10 μM in PBS (20 mM). […] Subsequently, they were diluted to a working concentration of 10 μM using PBS (20 mM) as the diluent. For individual runs, each antagonist was further diluted with the running buffer, composed of PBS (20 mM) with 3 % DMSO, resulting in a final concentration of 1 μM. To evaluate the interaction of both antagonists simultaneously, a 1:1 combination ratio was employed. Glycine, at a pH of 2.5 was utilized as the regeneration buffer. Additionally, solvent correction cycles were incorporated, consisting of eight correction points ranging from 2.5 % to 3.8 % of DMSO content, ensuring accurate data interpretation during the experimental procedure.
Compounds were initially prepared at a concentration of 10 mM in DMSO and subsequently diluted in PBS (20 mM) to either 10 or 2 μM, depending on the binding response unit (RU) observed during the binding screening assays. For individual evaluations, compounds were diluted in a 1:1 combination ratio with the running buffer, PBS (20 mM) + 3 % DMSO, to either 5 or 1 μM.
These mixtures were subsequently diluted to either 5 or 1 μM using the running buffer.
The theoretical non-competitive value was calculated as the sum of the experimental RU values of the cannabinoid and BX430, or the cannabinoid and 5-BDBD. The combined experimental RU value was compared to both the competitive and non-competitive theoretical RU values to determine the type of binding.

human P2X4 = conditions: HEK293 cells expressing human P2X4; cited from earlier work
P2X4 receptor [2] = molecular target: T1, P2X4 receptor; test: Surface plasmon resonance binding screening assay; conditions: for Kd / koff / kon: SPR Biacore T200, P2X4 immobilized on CM5 chip, 1:1 binding model, n.d. = not detectable; for Kd / koff / kon / binding affinity with P2X4 (in words): 0.4-300 μM; for koff: read-out: Koff (dissociation rate); for kon: read-out: Kon (association rate); for RU (Response Units) values compared with theoretical Rmax / binding affinity with P2X4 (in words): SPR screening; for RU (Response Units) values compared with theoretical Rmax: attributed to matrix binding effects; for association/dissociation phase with P2X4 (sensorgram, in words): SPR screening sensorgrams, Fig. 3
P2X4 = test system: P2X4; design: method as in PMID 28588493; conditions: selective non-competitive (allosteric) antagonist of P2X4; cited from earlier work
[3] = KD (equilibrium dissociation constant)
[4] = read-out: KD (equilibrium dissociation constant)

SMILES	Kd (P2X4 receptor [2]; [3])	koff (P2X4 receptor [2]) [s⁻¹]	kon (P2X4 receptor [2]) [M⁻¹ s⁻¹]	binding affinity with P2X4 (in words) (P2X4 receptor [2])	also measured
O=C1CN=C(c2cccc(Br)c2)c2oc3ccccc3c2N1 [5-BDBD, reference compound]	–	–	–	–	Response Unit (RU) (P2X4 receptor [1]; Fig. 6A: CBD alone): 5.8 RU; Response Unit (RU) (P2X4 receptor [1]; Fig. 6E: CBV alone): 6.4 RU; experimental binding response unit (RU) (P2X4 receptor [1]): 34.9 RU; IC50 (human P2X4): […]
C=C(C)[C@@H]1C[C@H](O)C(C)=C[C@H]1c1c(O)cc(CCCCC)cc1O [6α–OH–CBD, 6α-hydroxy cannabidiol]	340 µM and > 10 µM	0.427	1270	–	Kd (P2X4 receptor [2]; [4]): 337 µM; RU (Response Units) values compared with theoretical Rmax (P2X4 receptor [2]): higher than the theoretical Rmax
CCCCCc1cc(O)c2c(c1)OC(C)(C)C1CCC(CO)=CC21 (stereo not drawn) [11-OH-THC]	6.31 µM	0.0742	11800	–	–
CC(C)c1cc(Br)c(NC(=O)Nc2cccnc2)c(Br)c1 [BX430, reference compound]	–	–	–	–	experimental binding response unit (RU) (P2X4 receptor [1]): 22.5 RU; IC50 (P2X4): 0.54 µM
CCCCCc1cc(O)c2c(c1)OC(C)(CCC=C(C)C)C=C2 (stereo not drawn) [CBC, cannabichromene]	–	–	–	did not demonstrate any binding affinity	–
CCCc1cc(O)c2c(c1)OC(C)(CCC=C(C)C)C=C2 (stereo not drawn) [CBCV, cannabichromevarin]	–	–	–	did not demonstrate any binding affinity	–
C=C(C)[C@@H]1CCC(C)=C[C@H]1c1c(O)cc(CCCCC)cc1O [CBD, cannabidiol]	1 µM	0.02	19200	–	Kd (P2X4 receptor [2]; [4]): 1.04 µM; association/dissociation phase with P2X4 (sensorgram, in words) (P2X4 receptor [2]): slow dissociation phase; Response Unit (RU) (P2X4 receptor [1]; Fig. 6A: CBD alone): 6.9 RU; type of binding on P2X4 relative to 5-BDBD (P2X4 receptor [1]): competitive P2X4-binders; also recorded: competitive binding
C=C(C)[C@@H]1CCC(C)=C[C@H]1c1c(O)cc(CCCCC)c(C(=O)O)c1O [CBDA, cannabidiolic acid]	–	–	–	did not demonstrate any binding affinity	–
C=C(C)[C@@H]1CCC(C)=C[C@H]1c1c(O)cc(CCCCC)c(C(=O)OC)c1O [CBDAME, cannabidiolic acid methyl ester]	–	–	–	did not demonstrate any binding affinity	–
C=C(C)C1CCC(C)=CC1c1c(O)cc(CCCC)cc1O (stereo not drawn) [CBDB, cannabidibutol]	–	–	–	did not demonstrate any binding affinity	–
C=C(C)C1CCC(C)=CC1c1c(O)cc(CCCCCCC)cc1O (stereo not drawn) [CBDP, cannabidiphorol]	–	–	–	did not demonstrate any binding affinity	–
C=C(C)[C@@H]1CCC(C)=C[C@H]1c1c(O)cc(CCC)cc1O [CBDV, cannabidivarin]	9.9 µM	0.12	12100	–	Kd (P2X4 receptor [2]; [4]): 9.91 µM
CCCCCc1cc(O)c(C/C=C(\C)CCC=C(C)C)c(O)c1 [CBG, cannabigerol]	–	–	–	did not demonstrate any binding affinity	–
CCCCCc1cc(O)c(C/C=C(\C)CCC=C(C)C)c(O)c1C(=O)O [CBGA, cannabigerolic acid]	140 µM and > 10 µM	0.119	824	–	Kd (P2X4 receptor [2]; [4]): 144 µM; association/dissociation phase with P2X4 (sensorgram, in words) (P2X4 receptor [2]): slow association and dissociation phases
CCCCCc1cc(O)c(C/C=C(\C)CCC=C(C)C)c(OC)c1 [CBGM, cannabigerol monomethyl ether]	–	–	–	did not demonstrate any binding affinity	–
CC(C)=CCC/C(C)=C/Cc1c(O)cc(C)c(C(=O)O)c1O [CBGOA, cannabigerorcinic acid]	140 µM and > 10 µM	0.375	2720	–	Kd (P2X4 receptor [2]; [4]): 138 µM; RU (Response Units) values compared with theoretical Rmax (P2X4 receptor [2]): higher than the theoretical Rmax
CCCc1cc(O)c(C/C=C(\C)CCC=C(C)C)c(O)c1 [CBGV, cannabigerovarin]	–	–	–	–	association/dissociation phase with P2X4 (sensorgram, in words) (P2X4 receptor [2]): slow dissociation phase
CCCc1cc(O)c(C/C=C(\C)CCC=C(C)C)c(O)c1C(=O)O [CBGVA, cannabigerovarinic acid]	–	0.174	1890	–	Kd (P2X4 receptor [2]; [4]): 92 µM; association/dissociation phase with P2X4 (sensorgram, in words) (P2X4 receptor [2]): slow association and dissociation phases; RU (Response Units) values compared with theoretical Rmax (P2X4 receptor [2]): higher than the theoretical Rmax
CCCCCc1cc(O)c2c(c1)OC1(C)CCC3C1C2C3(C)C (stereo not drawn) [CBL, cannabicyclol]	–	–	–	did not demonstrate any binding affinity	–
CCCCCc1cc(O)c2c(c1)OC(C)(C)c1ccc(C)cc1-2 [CBN, cannabinol]	–	–	–	did not demonstrate any binding affinity	–
C=C(C)c1ccc(C)cc1-c1c(O)cc(CCCCC)cc1O [CBND, cannabinodiol]	84 µM	0.128	1520	–	Kd (P2X4 receptor [2]; [4]): 84.2 µM; RU (Response Units) values compared with theoretical Rmax (P2X4 receptor [2]): higher than the theoretical Rmax
CCCc1cc(O)c2c(c1)OC(C)(C)c1ccc(C)cc1-2 [CBV, cannabivarin]	16.4 µM	0.0405	2470	–	association/dissociation phase with P2X4 (sensorgram, in words) (P2X4 receptor [2]): slow dissociation phase; Response Unit (RU) (P2X4 receptor [1]; Fig. 6E: CBV alone): 0.9 RU; type of binding on P2X4 relative to 5-BDBD (P2X4 receptor [1]): competitive P2X4-binders; also recorded: competitive binding
CCCCCc1cc2c(c(O)c1C(=O)O)[C@@H]1C=C(C)CC[C@H]1C(C)(C)O2 [THCA-A, Δ^9-tetrahydrocannabinolic acid A]	117 µM	0.101	866	–	association/dissociation phase with P2X4 (sensorgram, in words) (P2X4 receptor [2]): slow association and dissociation phases; RU (Response Units) values compared with theoretical Rmax (P2X4 receptor [2]): higher than the theoretical Rmax
CCCCc1cc(O)c2c(c1)OC(C)(C)C1CCC(C)=CC21 (stereo not drawn) [THCB, Δ^9-tetrahydrocannabibutol]	–	–	–	did not demonstrate any binding affinity	–
CCCCCCCc1cc(O)c2c(c1)OC(C)(C)C1CCC(C)=CC21 (stereo not drawn) [THCP, Δ^9-tetrahydrocannabiphorol]	–	–	–	did not demonstrate any binding affinity	–
CCCc1cc(O)cc(O)c1C(=O)O [Varinolic acid, varinolic acid]	–	–	–	did not demonstrate any binding affinity	–
CCCCCc1cc2c(c(O)c1C(=O)O)[C@@H]1CC(C)=CC[C@H]1C(C)(C)O2 [Δ^8-THCA-A, Δ^8-trans-tetrahydrocannabinolic acid A]	76 µM and 76.4 µM	0.0812	1060	–	association/dissociation phase with P2X4 (sensorgram, in words) (P2X4 receptor [2]): slow association and dissociation phases; RU (Response Units) values compared with theoretical Rmax (P2X4 receptor [2]): higher than the theoretical Rmax
